US11753430B2, “Method of making cobalt compounds for feed supplements” (Vitalix, Inc., priority 2021, dated 2023)

Assay: surface area of crystals formed with and without sonication
Type: physicochemical
Experimental: The method can also include a step of forming a premix, including the substeps of adding, after the step of dissolving, gluconic acid to provide an almost 1:1 premix mixture of cobalt acetate and cobalt gluconate compounds, and then sonicating the premix mixture. The premix remained in solution at 15° C. for over ten days. When additional gluconic acid (1.1 eq of total gluconic acid to acetic acid) was added, and gently mixed, within a half hour precipitation of very fine cobalt gluconate crystals occurred.

For cobalt gluconate, the “surface area relative to that observed with sonication” value was “less than 20 times”.
